# Results from patent US20200261375A1, “Use Of (+)-2-Borneol In Preparation Of Drug For Promoting Upregulation Of Expression Of Sphingosine Kinase-1 And/Or BDNF” (SUZHOU PHARMAVAN CO, LTD., priority 2017, published 2020).
# Legend:
# Assay type in all cases: in vivo
# [1] = test system: sphingosine kinase-1 (Sphk1); experiment: Rat model of focal cerebral ischemia-reperfusion (MCAO), genome-wide expression profiling of brain tissue around the infarct area: Sphk1; conditions: 2 mg/kg once by tail vein injection 2 hours after ischemia-reperfusion, brain tissue around the infarct area 48 hours after reperfusion, relative to the sham-operated group / model group
# Description: (§1) Rat model of focal cerebral ischemia-reperfusion A rat model of middle cerebral artery occlusion (MCAD)-induced cerebral ischemia-reperfusion was prepared by thread occlusion of the internal carotid artery. A drug was administered once by tail vein injection 2 hours after ischemia-reperfusion. One dose group was set for (+)-2-borneol, i.e. 2 mg/kg. 48 hours after the cerebral ischemia-reperfusion, about a soybean size of brain tissue around the infarct area was harvested, sent to CapitalBio Technology Inc., Beijing, and subjected to genome-wide expression profiling by using Affymetrix GeneChip Rat Genome 230 2.0 Array Affymetrix Rat (Latin: Rattus norvegicus) Genome 230 2.0 chip.
# [2] = test system: brain-derived neurotrophic factor (BDNF); experiment: Rat model of focal cerebral ischemia-reperfusion (MCAO), genome-wide expression profiling of brain tissue around the infarct area: BDNF; conditions: 2 mg/kg once by tail vein injection 2 hours after ischemia-reperfusion, brain tissue around the infarct area 48 hours after reperfusion, relative to the sham-operated group
# Description: as §1
# [3] = test system: mouse model of focal cerebral motor cortex ischemia; experiment: Mouse model of focal motor cortex ischemia (photochemical), grid test; conditions: 3.0, 1.5, 0.75 mg/kg tail vein injection, Day 14, 28, 42 after ischemic injury
# Description: (§2) Long-term pharmacodynamic assay of (+)-2-borneol in a mouse model of focal motor cortex ischemia A mouse model of focal cerebral motor cortex ischemia was induced by photochemical method. Three dose groups were set for (+)-2-borneol, i.e. 3.0, 1.5, 0.75 mg/kg, respectively. Edaravone at a dose of 9 mg/kg was used as a positive control. A drug was administered once by tail vein injection 2 hours after cortex ischemia, and then administered every 24 hours, for a total of 14 administrations. A grid test was used to determine respectively the failure rate of forelimb on Day 14, Day 28 and Day 42 after ischemic injury; and a cylinder test was used to determine the motor asymmetry index of the affected forelimb and the contralateral forelimb on Day 14, Day 28 and Day 42 after ischemic injury to determine its effect on motor function. After the behavior measurements, 5 animals were randomly selected from each group and killed, and the brain was harvested for Golgi staining to determine the neuronal survival and dendritic richness in the penumbra area.
# [4] = test system: mouse model of focal cerebral motor cortex ischemia; experiment: Mouse model of focal motor cortex ischemia (photochemical), cylinder test; conditions: 3.0, 1.5, 0.75 mg/kg tail vein injection, 14 administrations, Day 14, 28, 42 after ischemic injury
# Description: as §2
# [5] = test system: mouse model of focal cerebral motor cortex ischemia; experiment: Mouse model of focal motor cortex ischemia (photochemical), Golgi staining of brain; conditions: Golgi staining after the behavior measurements; 3.0, 1.5, 0.75 mg/kg tail vein injection, 14 administrations
# Description: as §2
compound,measurement,setting,value
CC1(C)[C@@H]2CC[C@@]1(C)[C@@H](O)C2 [(+)-2-borneol],sphingosine kinase-1 (Sphk1) expression up-regulated,[1],2.64 fold
same,brain-derived neurotrophic factor (BDNF) expression up-regulated,[2],2.67 fold
same,motor function of mice with photochemically induced injury,[3]; 14 administrations every 24 hours,significantly improve
same,failure rate of the left forelimb (affected side),"[3]; grid test, 14 administrations",significant decreases
same,asymmetry index of both forelimbs,[4],significant decreases
same,dendritic length around the ischemic area,[5],significant improvements
same,dendritic spine density around the ischemic area,[5],significant improvements
same,number of dendritic branches around the ischemic area,[5],significant improvements
